Test system: APCs in the draining LNs
Test: Subcutaneous LPS stimulation: activation markers CD40 and CD86 on APCs in draining LNs
Format: in vivo, mouse
Details: s.c. treatment, LPS challenge on Day 6
Experimental: In order to assess the ability of lymph node targeted Neg-ButM in suppressing the activation of APCs, the investors tested on a mouse model of subcutaneous lipopolysaccharide (LPS) stimulation and evaluated on the activation marker including CD40 and CD86 on the major APCs in the draining LNs. Mice were injected with either PBS, sodium butyrate (NaBut), NtL-ButM, or Neg-ButM subcutaneously at the abdomen site. On Day 6, Mice were challenged with LPS on the same injection site, and sacrificed the next day for the cellular analysis.

With `CCCC(=O)[O-].[Na+]` [sodium butyrate] the “suppression of APC activation” value was “neither the NtL-ButM, nor sodium butyrate showed any significant suppression on the APC activations”.

From patent US20230201118A1, “PRODRUG COPOLYMERS AND POLYMERIC MICELLES THEREOF FOR THE DELIVERY OF SHORT-CHAIN FATTY ACIDS, THE PROMOTION OF GUT HEALTH, AND THE TREATMENT OF IMMUNE AND/OR INFLAMMATORY CONDITIONS AND FOOD ALLERGY” (The University of Chicago, priority 2021, published 2023)
